# pIC50: −log10 of the molar value.
# Biological target: T1, human TLR9 (Homo sapiens, UniProt Q9NR96)
# T1 construct: host or cells: HEK-Blue cells
# T1 sequence (Q9NR96 26-1032): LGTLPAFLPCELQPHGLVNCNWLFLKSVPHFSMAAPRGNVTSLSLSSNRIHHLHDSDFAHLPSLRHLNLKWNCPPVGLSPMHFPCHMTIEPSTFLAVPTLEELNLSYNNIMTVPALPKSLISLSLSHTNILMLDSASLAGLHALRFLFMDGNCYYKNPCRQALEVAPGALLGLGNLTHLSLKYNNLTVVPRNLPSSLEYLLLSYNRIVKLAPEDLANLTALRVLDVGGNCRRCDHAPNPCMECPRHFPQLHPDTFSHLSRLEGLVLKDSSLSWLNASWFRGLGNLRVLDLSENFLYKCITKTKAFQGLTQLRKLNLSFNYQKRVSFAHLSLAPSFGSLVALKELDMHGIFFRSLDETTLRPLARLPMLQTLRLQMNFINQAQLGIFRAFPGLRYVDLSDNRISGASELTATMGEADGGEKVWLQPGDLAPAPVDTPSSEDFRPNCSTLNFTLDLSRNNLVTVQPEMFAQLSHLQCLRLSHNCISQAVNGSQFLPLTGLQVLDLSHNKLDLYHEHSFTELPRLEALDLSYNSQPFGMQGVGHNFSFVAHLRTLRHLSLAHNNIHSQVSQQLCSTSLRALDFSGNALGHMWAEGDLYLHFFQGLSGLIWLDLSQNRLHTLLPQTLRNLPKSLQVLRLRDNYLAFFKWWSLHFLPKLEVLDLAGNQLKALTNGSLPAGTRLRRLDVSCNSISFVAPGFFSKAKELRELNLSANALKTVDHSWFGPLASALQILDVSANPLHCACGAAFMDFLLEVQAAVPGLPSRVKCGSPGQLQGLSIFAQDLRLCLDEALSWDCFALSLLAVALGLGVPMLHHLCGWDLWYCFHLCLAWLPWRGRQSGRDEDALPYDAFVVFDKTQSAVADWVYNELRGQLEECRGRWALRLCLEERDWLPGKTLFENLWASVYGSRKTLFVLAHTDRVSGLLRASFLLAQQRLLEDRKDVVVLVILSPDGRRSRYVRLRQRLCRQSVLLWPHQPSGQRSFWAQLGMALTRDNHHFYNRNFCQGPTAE
# Test: TLR9 inhibition reporter assay (HEK-Blue cells, SEAP reporter, ODN2006 stimulation)
# Assay type: cell-based
# Details: HEK-Blue cells overexpressing human TLR9, ODN2006 5 nM
# In short: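 Agonists used: gardiquimod 7.5 μM (TLR7), R848 15.9 μM (TLR8), ODN2006 5 nM (TLR9), added after 30 min room-temperature compound pre-treatment (0.05 nM–50 μM) of receptor-overexpressing HEK-Blue cells. SEAP reporter (NF-κB/AP-1 driven) read after 22 h at 37 °C; inhibition scaled between agonist+DMSO and reference-inhibitor wells.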
row,pIC50,Structure (SMILES)
1,5.38,"CCN(CC)C(=O)C1CCCN(CC(=O)N2CCC(c3ccc4[nH]c(-c5ccc(OC)c(OC)c5)c(C(C)C)c4c3)CC2)C1 (stereo not drawn) [Example 247, 1-(2-(4-(2-(3,4-dimethoxyphenyl)-3-isopropyl-1H-indol-5-yl)piperidin-1-yl)-2-oxoethyl)-N,N-diethylpiperidine-3-carboxamide]"
2,5.52,"COc1ccc(-c2[nH]c3ccc(C4CCN(C(=O)CN5CCC[C@H](C(=O)NC6(CO)CCCC6)C5)CC4)cc3c2C(C)C)cc1OC [Example 296, (S)-1-(2-(4-(2-(3,4-dimethoxyphenyl)-3-isopropyl-1H-indol-5-yl)piperidin-1-yl)-2-oxoethyl)-N-(1-(hydroxymethyl)cyclopentyl)piperidine-3-carboxamide]"
3,6.08,"COc1ccc(-c2[nH]c3ccc(C4CCN(CC(=O)N5CCN(C)CC5)CC4)cc3c2C(C)C)cc1OC [Example 274, 2-(4-(2-(3,4-dimethoxyphenyl)-3-isopropyl-1H-indol-5-yl)piperidin-1-yl)-1-(4-methylpiperazin-1-yl) ethan-1-one]"
4,5.52,"COc1ccc(-c2[nH]c3ccc(C4CCN(C(=O)CN5CCC[C@H](C(=O)NCC#N)C5)CC4)cc3c2C(C)C)cc1OC [Example 297, (S)—N-(cyanomethyl)-1-(2-(4-(2-(3,4-dimethoxyphenyl)-3-isopropyl-1H-indol-5-yl)piperidin-1-yl)-2-oxoethyl)piperidine-3-carboxamide]"
5,5.86,"COc1ccc(-c2[nH]c3ccc(C4CCN(C(=O)CN5CCN(C(C)C)CC5)CC4)cc3c2C(C)C)cc1OC [Example 240, 1-(4-(2-(3,4-dimethoxyphenyl)-3-isopropyl-1H-indol-5-yl)piperidin-1-yl)-2-(4-isopropylpiperazin-1-yl)ethan-1-one]"
6,5.65,"COc1ccc(-c2[nH]c3ccc(C4CCN(C(=O)CN5CCC[C@H](C(=O)N6CCN(Cc7ccc(Br)cc7)CC6)C5)CC4)cc3c2C(C)C)cc1OC [Example 294, (S)-2-(3-(4-(4-bromobenzyl)piperazine-1-carbonyl)piperidin-1-yl)-1-(4-(2-(3,4-dimethoxyphenyl)-3-isopropyl-1H-indol-5-yl)piperidin-1-yl)ethan-1-one]"
7,5.94,"COc1ccc(-c2[nH]c3ccc(C4CCN(C(=O)CNC5CCC(C(C)(C)O)CC5)CC4)cc3c2C(C)C)cc1OC (stereo not drawn) [Example 245, 1-(4-(2-(3,4-dimethoxyphenyl)-3-isopropyl-1H-indol-5-yl)piperidin-1-yl)-2-((4-(2-hydroxypropan-2-yl)cyclohexyl)amino)ethan-1-one]"
8,5.64,"COc1ccc(-c2[nH]c3ccc(C4CCN(C(=O)CN5CCC[C@H](C(=O)N6CCCC6)C5)CC4)cc3c2C(C)C)cc1OC [Example 287, (S)-1-(4-(2-(3,4-dimethoxyphenyl)-3-isopropyl-1H-indol-5-yl)piperidin-1-yl)-2-(3-(pyrrolidine-1-carbonyl)piperidin-1-yl)ethan-1-one]"
9,5.30,"COc1ccc(-c2[nH]c3ccc(C4CCN(C(=O)CN5CCN(CC(=O)NC(C)C)CC5)CC4)cc3c2C(C)C)cc1OC [Example 229, 2-(4-(2-(4-(2-(3,4-dimethoxyphenyl)-3-isopropyl-1H-indol-5-yl)piperidin-1-yl)-2-oxoethyl)piperazin-1-yl)-N-isopropylacetamide]"
10,6.06,"CCC(CO)NCC(=O)N1CCC(c2ccc3[nH]c(-c4ccc(OC)c(OC)c4)c(C(C)C)c3c2)CC1 (stereo not drawn) [Example 233, 1-(4-(2-(3,4-dimethoxyphenyl)-3-isopropyl-1H-indol-5-yl)piperidin-1-yl)-2-((1-hydroxybutan-2-yl)amino)ethan-1-one]"
11,5.30,"COc1ccc(-c2[nH]c3ccc(C4CCN(CC(=O)NCCCO)CC4)cc3c2C(C)C)cc1OC [Example 277, 2-(4-(2-(3,4-dimethoxyphenyl)-3-isopropyl-1H-indol-5-yl)piperidin-1-yl)-N-(3-hydroxypropyl)acetamide]"
12,6.38,"COc1ccc(-c2[nH]c3ccc(C4CCN(C(=O)CN5CCCC(C(=O)NC6CCN(C(C)C)CC6)C5)CC4)cc3c2C(C)C)cc1OC (single isomer, unassigned) [Example 280, 1-(2-(4-(2-(3,4-dimethoxyphenyl)-3-isopropyl-1H-indol-5-yl)piperidin-1-yl)-2-oxoethyl)-N-(1-isopropylpiperidin-4-yl)piperidine-3-carboxamide]"
13,4.81,"COc1ccc(-c2[nH]c3ccc(C4CCN(C(=O)CNC[C@@H](F)C(C)(C)O)CC4)cc3c2C(C)C)cc1OC [Example 251, (R)-1-(4-(2-(3,4-dimethoxyphenyl)-3-isopropyl-1H-indol-5-yl)piperidin-1-yl)-2-((2-fluoro-3-hydroxy-3-methylbutyl)amino) ethan-1-one]"
14,5.27,"COc1ccc(-c2[nH]c3ccc(C4CCN(C(=O)CN5CCC[C@H](C(=O)NCCNC(C)=O)C5)CC4)cc3c2C(C)C)cc1OC [Example 295, (S)—N-(2-acetamidoethyl)-1-(2-(4-(2-(3,4-dimethoxyphenyl)-3-isopropyl-1H-indol-5-yl)piperidin-1-yl)-2-oxoethyl) piperidine-3-carboxamide]"
15,6.30,"COc1ccc(-c2[nH]c3ccc(C4CCN(C(=O)CN5CCC[C@H](C(=O)N6CCC(N(C)C)CC6)C5)CC4)cc3c2C(C)C)cc1OC [Example 289, (S)-1-(4-(2-(3,4-dimethoxyphenyl)-3-isopropyl-1H-indol-5-yl)piperidin-1-yl)-2-(3-(4-(dimethylamino)piperidine-1-carbonyl)piperidin-1-yl)ethan-1-one]"
16,6.51,"COc1ccc(-c2[nH]c3ccc(C4CCN(C(=O)CN[C@H]5CC[C@H](N)CC5)CC4)cc3c2C(C)C)cc1OC [Example 232, 2-(((1r,4r)-4-aminocyclohexyl)amino)-1-(4-(2-(3,4-dimethoxyphenyl)-3-isopropyl-1H-indol-5-yl)piperidin-1-yl)ethan-1-one]"
17,5.75,"COc1ccc(-c2[nH]c3ccc(C4CCN(C(=O)CN5CCC[C@@H](C(=O)N6CCCC6)C5)CC4)cc3c2C(C)C)cc1OC [Example 303, (R)-1-(4-(2-(3,4-dimethoxyphenyl)-3-isopropyl-1H-indol-5-yl)piperidin-1-yl)-2-(3-(pyrrolidine-1-carbonyl)piperidin-1-yl)ethan-1-one]"
18,5.16,"COc1ccc(-c2[nH]c3ccc(C4CCN(C(=O)CN5CCCN(C(C)=O)CC5)CC4)cc3c2C(C)C)cc1OC [Example 222, 2-(4-acetyl-1,4-diazepan-1-yl)-1-(4-(2-(3,4-dimethoxyphenyl)-3-isopropyl-1H-indol-5-yl)piperidin-1-yl)ethan-1-one]"
19,5.85,"COc1ccc(-c2[nH]c3ccc(C4CCN(C(=O)CN5CCC(O)CC5)CC4)cc3c2C(C)C)cc1OC [Example 238, 1-(4-(2-(3,4-dimethoxyphenyl)-3-isopropyl-1H-indol-5-yl)piperidin-1-yl)-2-(4-hydroxypiperidin-1-yl) ethan-1-one]"
20,4.57,"COc1ccc(-c2[nH]c3ccc(C4CCN(C(=O)COC(C)C)CC4)cc3c2C(C)C)cc1OC [Example 314, 1-(4-(2-(3,4-dimethoxyphenyl)-3-isopropyl-1H-indol-5-yl)piperidin-1-yl)-2-isopropoxyethan-1-one]"
21,5.34,"COc1ccc(-c2[nH]c3ccc(C4CCN(C(=O)CN5CCC[C@H](C(=O)N6CCN(C(C)=O)CC6)C5)CC4)cc3c2C(C)C)cc1OC [Example 284, (S)-2-(3-(4-acetylpiperazine-1-carbonyl)piperidin-1-yl)-1-(4-(2-(3,4-dimethoxyphenyl)-3-isopropyl-1H-indol-5-yl)piperidin-1-yl)ethan-1-one]"
